Laboratory results: US5633219A, “5H-pyrrolo(3',4':5,6)(1,4)dithiin o(2,3-C)(1,2,5)thiadiazole-5,7(6H)-dione, compositions containing them and their use as antimicrobial and marine antifouling agents” (The Dow Chemical Company, priority 1996, dated 1997)
Converted amounts (≈) assume the structure as drawn. Like-named read-outs stand apart in the source and are kept apart here.

Assays:
[1] = system: Pseudomonas aeruginosa (Pa); test: Minimum inhibitory concentration, nutrient agar, Pseudomonas aeruginosa; type: cell-based, Pseudomonas aeruginosa ATCC 10145; settings: 30° C, 48 hours
[2] = system: Salmonella choleraesuis (Sc); test: Minimum inhibitory concentration, nutrient agar, Salmonella choleraesuis; type: cell-based, Salmonella choleraesuis ATCC 10708; settings: Salmonella enterica, 30° C, 48 hours
Candida albicans (Ca) = test: Minimum inhibitory concentration, malt yeast agar, Candida albicans; type: cell-based, Candida albicans ATCC 10231; settings: read-out: Minimum Inhibitory Concentration, Ca
Protocol: (§1) Malt yeast agar is prepared by adding 3 g yeast extract and 45 g malt agar per liter of deionized water. The specific agar is dispensed in 30 mL aliquots into 25×200 mm test tubes, capped and autoclaved for 15 minutes at 115° C.
(§2) The inoculation with the yeast and fungi is accomplished as follows. Cultures of yeast and fungi are incubated for seven days on malt yeast agar at 30° C. These cultures are used to prepare suspensions by the following procedure. A suspension of each organism is prepared by adding 10 mL of sterile saline and 10 microliters of octylphenoxy polyethoxy ethanol to the agar slant of yeast or fungi. The sterile saline/octylphenoxy polyethoxy ethanol solution is then agitated with a sterile swab to suspend the microorganism grown on the slant. Each resulting suspension is diluted into sterile saline (1 part suspension to 9 parts sterile saline). Aliquots of these dilutions are placed in individual wells of Steer's Replicator and petri plates inoculated as previously described. The petri plates are incubated at 30° C. and read after 48 hours for yeast and 72 hours for fungi.

[3] = system: Penicillium chrysogenum (PC); test: Minimum inhibitory concentration, malt yeast agar, Penicillium chrysogenum; type: cell-based, Penicillium chrysogenum ATCC 9480; settings: read-out: Minimum Inhibitory Concentration, Pc
Protocol: as §1, §2

[4] = system: Saccharomyces cerevisiae (Sc); test: Minimum inhibitory concentration, malt yeast agar, Saccharomyces cerevisiae; type: cell-based, Saccharomyces cerevisiae ATCC 4105; settings: read-out: Minimum Inhibitory Concentration, Sc
Protocol: as §1, §2

Trichoderma viride (Tv) = test: Minimum inhibitory concentration, malt yeast agar, Trichoderma viride; type: cell-based, Trichoderma viride ATCC 8678; settings: read-out: Minimum Inhibitory Concentration, Tv
Protocol: as §1, §2

[5] = system: Aureobasidium pullulan (Ap); test: Minimum inhibitory concentration, malt yeast agar, Aureobasidium pullulan; type: cell-based, Aureobasidium pullulan ATCC 16622; settings: 30° C, 48 hours for yeast and 72 hours for fungi
Protocol: as §1, §2

Escherichia coli (Ec) = test: Minimum inhibitory concentration, nutrient agar, Escherichia coli; settings: 48 h
Proteus vulgaris (Pv) = test: Minimum inhibitory concentration, nutrient agar, Proteus vulgaris; settings: 48 h
Bacillus subtilis (Bs) = test: Minimum inhibitory concentration, nutrient agar, Bacillus subtilis; settings: 48 h
[6] = system: Klebsiella pneumoniae (Kp); test: Minimum inhibitory concentration, nutrient agar, Klebsiella pneumoniae; settings: 48 h
[7] = system: Staphylococcus aureus (Sa); test: Minimum inhibitory concentration, nutrient agar, Staphylococcus aureus; settings: 48 h
[8] = system: Enterobacter aerogenes (Ea); test: Minimum inhibitory concentration, nutrient agar, Enterobacter aerogenes; settings: Klebsiella aerogenes, 48 h
[9] = system: Pseudomonas aeruginosa (PRD-10); test: Minimum inhibitory concentration, nutrient agar, Pseudomonas aeruginosa PRD-10; settings: 48 h
Aspergillus niger (An) = test: Minimum inhibitory concentration, malt yeast agar, Aspergillus niger; type: cell-based, Aspergillus niger ATCC 16404; settings: 30° C, 72 hours (fungi)
Protocol: as §1, §2

Fusarium oxysporum (Of) = test: Minimum inhibitory concentration, malt yeast agar, Fusarium oxysporum; type: cell-based, Fusarium oxysporum ATCC 48112; settings: 30° C, 72 hours (fungi), read-out: Minimum Inhibitory Concentration, Fo
Protocol: as §1, §2

[10] = malt yeast agar, 30° C, 72 hours (fungi)
[11] = pH 6.8, read-out: Minimum inhibitory Concentration, Ec
[12] = pH 8.2, read-out: Minimum inhibitory Concentration, Ec
[13] = pH 6.8, read-out: Minimum inhibitory Concentration, Pv
[14] = pH 8.2, read-out: Minimum inhibitory Concentration, Pv
[15] = pH 6.8, read-out: Minimum inhibitory Concentration, Bs
[16] = pH 8.2, read-out: Minimum inhibitory Concentration, Bs
[17] = pH 6.8, read-out: Minimum inhibitory Concentration, Kp
[18] = pH 8.2, read-out: Minimum inhibitory Concentration, Kp
[19] = pH 6.8, read-out: Minimum inhibitory Concentration, Sa
[20] = pH 8.2, read-out: Minimum inhibitory Concentration, Sa
[21] = pH 6.8, read-out: Minimum inhibitory Concentration, Ea
[22] = pH 8.2, read-out: Minimum inhibitory Concentration, Ea
[23] = pH 6.8, read-out: Minimum inhibitory Concentration, PRD
[24] = pH 8.2, read-out: Minimum inhibitory Concentration, PRD
[25] = malt yeast agar, 30° C, 48 hours (yeast)

Row | Compound | MIC ([1]; pH 6.8, nutrient agar) | MIC ([1]; pH 8.2, nutrient agar) | MIC ([2]; pH 6.8, nutrient agar) | MIC ([2]; pH 8.2, nutrient agar) | MIC [3, 10] | MIC [5] | MIC (Escherichia coli (Ec); [11]) | MIC (Escherichia coli (Ec); [12]) | MIC (Proteus vulgaris (Pv); [13]) | MIC (Proteus vulgaris (Pv); [14]) | MIC (Bacillus subtilis (Bs); [15]) | MIC (Bacillus subtilis (Bs); [16]) | MIC [6, 17] | MIC [6, 18] | MIC [7, 19] | MIC [7, 20] | MIC [8, 21] | MIC [8, 22] | MIC [9, 23] | MIC [9, 24] | further results
1 | CCCCCCn1c(=O)c2sc3nsnc3sc=2c1=O [V, 6-n-Hexyl-5H-Pyrrolo (3',4':5,6)(1,4)dithiino-(2,3-C)(1,2,5)thiadiazole-5,7(6H) -dione] | > 500 µg/mL | > 500 µg/mL | > 500 µg/mL | > 500 µg/mL | 25 µg/mL (≈ 76.3 µM) | 25 µg/mL (≈ 76.3 µM) | > 500 µg/mL | > 500 µg/mL | > 500 µg/mL | > 500 µg/mL | < 10 µg/mL | 25 µg/mL (≈ 76.3 µM) | > 500 µg/mL | > 500 µg/mL | < 10 µg/mL | < 10 µg/mL | > 500 µg/mL | > 500 µg/mL | > 500 µg/mL | > 500 µg/mL | MIC (Candida albicans (Ca); 48 h): 25 µg/mL (≈ 76.3 µM); MIC ([4]; 48 h): 25 µg/mL (≈ 76.3 µM); MIC (Trichoderma viride (Tv); 72 h): 50 µg/mL (≈ 153 µM)
2 | O=c1c2sc3nsnc3sc=2c(=O)n1-c1ccccc1 [VI, 6-Phenyl-5H-Pyrrolo(3',4':5,6)(1,4)dithiino-(2,3-C)(1,2,5)thiadiazole-5,7 (6H) -dione] | > 500 µg/mL | > 500 µg/mL | > 500 µg/mL | > 500 µg/mL |  | < 10 µg/mL | > 500 µg/mL | > 500 µg/mL | > 500 µg/mL | > 500 µg/mL | < 10 µg/mL | 100 µg/mL (≈ 313 µM) | > 500 µg/mL | > 500 µg/mL | 25 µg/mL (≈ 78.3 µM) | 50 µg/mL (≈ 157 µM) | > 500 µg/mL | > 500 µg/mL | > 500 µg/mL | > 500 µg/mL | MIC (Aspergillus niger (An)): < 10 µg/mL; MIC (Candida albicans (Ca); [25]): 250 µg/mL (≈ 783 µM); MIC ([3]; 72 h): < 10 µg/mL; MIC [4, 25]: 100 µg/mL (≈ 313 µM); MIC (Trichoderma viride (Tv); [10]): 500 µg/mL (≈ 1570 µM); MIC (Fusarium oxysporum (Of)): 250 µg/mL (≈ 783 µM)
3 | O=c1c2sc3nsnc3sc=2c(=O)n1CCc1ccccc1 [VII, 6-(2-Phenethyl)-5H-Pyrrolo(3',4':5,6)(1,4)dithiino-(2,3-C)(1,2,5)thiadiazole-5,7(6H)-dione] | > 500 µg/mL | > 500 µg/mL | > 500 µg/mL | > 500 µg/mL | > 500 µg/mL | 100 µg/mL (≈ 288 µM) | > 500 µg/mL | > 500 µg/mL | > 500 µg/mL | > 500 µg/mL | > 500 µg/mL | > 500 µg/mL | > 500 µg/mL | > 500 µg/mL | > 500 µg/mL | > 500 µg/mL | > 500 µg/mL | > 500 µg/mL | > 500 µg/mL | > 500 µg/mL | MIC (Aspergillus niger (An)): 100 µg/mL (≈ 288 µM); MIC (Candida albicans (Ca); [25]): > 500 µg/mL; MIC [4, 25]: 250 µg/mL (≈ 720 µM); MIC (Trichoderma viride (Tv); [10]): > 500 µg/mL; MIC (Fusarium oxysporum (Of)): > 500 µg/mL
